Assay [1] deals with T1, complement component 5a receptor 1 (C5aR1) (Homo sapiens, UniProt P21730).
T1 construct: purchased OriGene TP303784
T1 sequence (P21730 1-350): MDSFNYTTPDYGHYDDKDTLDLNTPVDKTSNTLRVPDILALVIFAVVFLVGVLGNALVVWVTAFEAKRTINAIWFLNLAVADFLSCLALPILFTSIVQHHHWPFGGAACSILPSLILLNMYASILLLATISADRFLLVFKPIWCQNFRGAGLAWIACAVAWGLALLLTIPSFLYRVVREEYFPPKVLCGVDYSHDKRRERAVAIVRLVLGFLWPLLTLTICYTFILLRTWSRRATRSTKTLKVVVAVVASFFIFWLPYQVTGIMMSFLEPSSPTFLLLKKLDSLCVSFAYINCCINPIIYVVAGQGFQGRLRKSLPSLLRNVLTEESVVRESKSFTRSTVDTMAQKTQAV
The assay can be described thus: BIAcore SPR binding to C5aR1 immobilised on sensorchip CM5 via c-Myc-tag. The text has this:
(§1) BIAcore technology was used to analyze the interaction between Paclitaxel and complement component 5a receptor 1 (C5aR1) (Example 1), complement component 5a receptor 2 (C5AR2) (Example 2) or complement component 5a (Example 3).
(§2) The BIAcore systems exploit the phenomenon of Surface Plasmon Resonance (SPR) to monitor interactions between molecules in real time. Briefly, SPR phenomenon occurs in thin conducting films at an interface between media of different refractive index. In BIAcore systems, the media are the glass of the sensorchip and the sample solution, and the conducting film is a thin layer of gold on the sensorchip surface. BIAcore monitors the interaction between two molecules, one attached to the sensor surface, called ligand, and the other one free in solution, and called analyte.
An anti-c-Myc antibody (9E10, sc-40, Santa Cruz Technology) was immobilized on a sensorchip CM5 (#29149604, Cytiva). In details, the antibody was diluted at a concentration of 50 μg/ml in 10 mM acetate buffer at pH 4.5, and injected over the surface of the sensorchip. In details, the dextran matrix on the sensorchip surface was first activated with a mixture of […] (EDC) and N-hydroxysuccinimide (NHS) to give reactive succinimide esters. Anti-Myc antibodies were then passed over the surface and the esters reacted spontaneously with uncharged amino groups to covalently link the ligand to the dextran. Then, the surface was deactivated by ethanolamine-HCl.
Once the antibody was immobilized, the receptor was captured on the surface of the sensorchip. This procedure allowed the immobilization of the ligand of interest in an oriented way. In particular, C5AR1-cMyc (TP303784, OriGene) at a concentration of 20 μg/ml in Running Buffer (50 mM HEPES buffer, pH 7.0 containing 0.01% CHS, 0.1% CHAPS, and 0.33 mM of lipids) was injected onto the sensorchip prepared above with a flow rate of 5 μI/min.
In details, 5 μM C5a (A144, Complement Technologies) in Running Buffer was injected on C5aR1 surface of sensorchip prepared in Example 1a).
To first evaluate a direct binding of Paclitaxel and C5aR1, the compound was injected on the C5aR1 surface of the sensorchip prepared in Example 1a) at a concentration of 300 μM in Running Buffer.
Running Buffer at different concentrations (from 4.06 to 37.5 μM), injected on the sensorchip for 4 minutes and allowed to dissociate for 5 minutes, flowing Running Buffer without Paclitaxel. In this way, the kinetic constant was evaluated as a function of time.
Also, the affinity value at equilibrium of Paclitaxel/Myc-05aR1 interaction was determined by measuring the steady-state binding levels, through a Scatchard analysis of the RU values at equilibrium.
A general note: In SPR one partner is held on a chip, and binding of the other changes the refractive index at the surface.

The target in assay [2] is T2, complement component 5a (Homo sapiens, UniProt P01031).
T2 sequence (P01031 678-751 limits assumed): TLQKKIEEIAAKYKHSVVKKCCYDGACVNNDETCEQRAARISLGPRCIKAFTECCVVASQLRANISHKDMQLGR
The assay is described as follows: BIAcore SPR binding to C5a immobilised on sensorchip CM5. The note with it: 300 microM in Running Buffer.
Source text: as §1, §2
C5a was immobilized on a sensorchip (#29149604, Cytiva). In details, 20 microg/ml of recombinant protein C5a was diluted in 10 mM acetate buffer at pH 4.5 and injected over the surface of the sensorchip. Activation and deactivation of sensorchip were performed as described in Example 1a).
Paclitaxel was injected on the C5A surface of the sensorchip prepared in Example 2a) at a concentration of 300 microM in Running Buffer.RU can be detected by BIAcore.

Where two headings read alike, the source gives them in different places.

Consider `CC(=O)O[C@H]1C(=O)[C@@]2(C)[C@H]([C@H](OC(=O)c3ccccc3)[C@]3(O)C[C@H](OC(=O)[C@H](O)[C@@H](NC(=O)c4ccccc4)c4ccccc4)C(C)=C1C3(C)C)[C@]1(OC(C)=O)CO[C@@H]1C[C@@H]2O` [Paclitaxel], for which the “Paclitaxel bound to immobilised C5aR1, resonance units” value in assay [1] (300 μM in Running Buffer) was found to be 300 RU. Besides, the Kd in assay [1] (4.06 to 37.5 μM, 4 minutes injection, 5 minutes dissociation, read-out: Kd value (kinetic evaluation)) was determined as 0.67 µM; in assay [1] (steady-state RU as a function of analyte concentration, read-out: affinity constant at equilibrium (steady-state binding levels, Scatchard analysis)), 0.525 µM. In addition, the “binding to immobilised C5a” value in assay [2] is “not able to bind”.

B1: C5a: anaphylatoxin, pro-inflammatory polypeptide, the natural ligand of the receptor C5aR1 (protein, UniProt P01031 678-751, looked up)
C5a anaphylatoxin: TLQKKIEEIAAKYKHSVVKKCCYDGACVNNDETCEQRAARISLGPRCIKAFTECCVVASQLRANISHKDMQLGR
modifications: C5a anaphylatoxin
notes: anaphylatoxin, pro-inflammatory polypeptide, the natural ligand of the receptor C5aR1
Regarding B1, the “binding to immobilised C5aR1” value in assay [1] (5 μM in Running Buffer) was “can bind”.

The values above are taken from patent US20240180888A1, “C5AR1 INHIBITORS FOR TREATING […] REACTIONS TO TAXANES” (Dompe' Farmaceutici SPA, priority 2021, published 2024).
